These results are taken from US20240358727A1, “MICROSCALE THERMOPHORESIS TO EVALUATE CHANNEL LIPID INTERACTIONS AND METHODS OF TREATING NAV CHANNELS RELATED DISEASES” (Northeastern University, priority 2023, published 2024).

Entries after “also recorded” stand apart in the source; their conditions may differ. A value given as a limit tells only on which side of the number the result lay.

The target in test [1] is T1, Nav1.5 channel currents (INa, ILATE) in M3q iPS-CMs (Homo sapiens, UniProt Q14524).
T1 construct: host or cells: human iCell^2 iPS cardiomyocytes (transfected with M3q DREADD in A5; endogenous AT1 receptor in A7)
Nature of the test: Whole-cell patch-clamp of INa and ILATE in M3q-DREADD iPS-CMs activated with CNO. The test is classed as cell-based. The settings on record: for effect on CNO-evoked increase in ILATE / effect on CNO-evoked leftwards shifts in V½ACT and V½SSI: 200 μM diC8-PIP2 in pipette; for effect on CNO (M3q activation) effects on V½ACT, V½SSI and ILATE: staurosporine 1 μM 1-hour preincubation, BAPTA 10 mM in pipette, U73122 5 μM, diC8-PIP2 200 μM in pipette. The procedure: (§1) Control is CNO application to cells with no M3q. Mean±SD % fluorescence change for 20 cells per group; an example photobleaching montage is inset. […] Leftwards shifts in each parameter are precluded by U73122 or by 200 μM diC8-PIP2 in the pipette but are not sensitive to staurosporine or BAPTA. The cells were perfused with an extracellular solution containing (in mM): 130 NaCl, 5 CsCl, 1.2 MgCl2, 1.5 CaCl2), 8 Glucose, 10 HEPES (pH7.4). […] nitrendipine was added to the recording solution to block Ca^2+ flux through Cav channels. Patch pipettes with a resistance of 2.5-4 MQ are filled with a solution containing (in mM): 60 CsCl, 80 CsF, 2 MgCl2, 10 EGTA, 5 Na2ATP, 5 HEPES (pH 7.4). Currents were low pass (Bessel) filtered at 9 kHz and digitized at 50 kHz and were collected from cells with a series resistance <15 MQ; this was compensated by 70%.
Results. Studies are designed to evaluate if hydrolysis of PIP2 modulates Nav1.5 channel currents in cardiomyocytes. To perform these experiments, we used human iPS cardiomyocytes (iCell^2 iPS-CMs) from Fuji-Film Cellular Dynamics. These iPS-CMs are a valuable model system for human cardiomyocytes that retain many of the key characteristics of the native cells. Here, we transfected the iPS-CMs to express the Gαq-coupled M3q Designer Receptors Exclusively Activated by Designer Drugs (DREADD) receptor. We use a magnetic transfection system from Oz Biosciences that we have previously employed with cardiomyocytes. First, we tested the efficacy of M3q to hydrolyze PIP2 in our model system. To accomplish this, we studied uncoupling of the PIP2 biosensor iRFP-PHPLCδ1 from the plasma membrane in response to chemogenic activation of M3q by 100 nM clozapine N-oxide (CNO, Tocris Biosciences).
These findings are consistent with our prior observations and the work using optogenetically activated PI-phosphatases to deplete PIP2 in HEK293 cells […] Xenopus laevis oocytes. […] Having established a time frame for PIP2 hydrolysis in our system, we used whole-cell patch-clamp to study INa in paired experiments, before and after chemogenic activation of M3q. Applying 100 nM CNO evoked a leftward shift in the current-voltage (I-V) relationship of INa such that peak INa shifted from −25 to −35 mV. At −35 mV, the peak current-density increased from −220±5 pA/pF to −266±4 pA/pF at −35 mV (n=8, P<0.001, paired Student's t-test). […] However, in contrast to our findings with Nav1.4, activating M3q signaling also left-shifted the steady state inactivation curve of Nav1.5 (V½SSI), from −81.4±2 to −89.7±2 mV (n=8, P<0.01, paired t-test; FIGS. 2C, 2D). These studies indicate that Nav1.5 channels are regulated by hydrolysis of PIP2 and that there are distinctions between PIP2 regulation of Nav1.5 and Nav1.4.
Next, we studied the effect of M3q-activation on ILATE by recording currents evoked by a 400 ms depolarizing pulse to −20 mV before and during receptor activation. The magnitude of ILATE represents the mean current 150-200 ms after peak INa and is expressed as a percentage of peak INa. […] The effects of M3q activation on V½ACT, V½SSI, and the development of ILATE were not affected by staurosporine (1 μM, 1-hour preincubation) or BAPTA (10 mM in the recording pipette), making a role for IP3 or DAG unlikely. […] Similar data were obtained for Nav1.5 expressed with Navβ1 and the M3q-DREADD receptor in HEK293T cells. This experiment validates that the findings are not restricted to a particular model system or cellular environment.
Measure modulation in INa and ILATE by endogenous Gαq signaling. Like native cardiomyocytes, human iPS-CMs express AT1 receptors. Here, the effects of Ang II (Tocris) on Nav1.5 channel function in iPS-CMs is tested using four whole-cell patch-clamp recording protocols. […]

Test [2] deals with PIP2 hydrolysis (iRFP-PHPLCδ1 biosensor). Nature of the test: TIRFM uncoupling of PIP2 biosensor iRFP-PHPLCδ1 from the membrane of M3q iPS-CMs. The test is classed as cell-based, human. Particulars: 100 nM CNO. As to the method:
as §1
Results. Studies are designed to evaluate if hydrolysis of PIP2 modulates Nav1.5 channel currents in cardiomyocytes. To perform these experiments, we used human iPS cardiomyocytes (iCell^2 iPS-CMs) from Fuji-Film Cellular Dynamics. These iPS-CMs are a valuable model system for human cardiomyocytes that retain many of the key characteristics of the native cells. Here, we transfected the iPS-CMs to express the Gαq-coupled M3q Designer Receptors Exclusively Activated by Designer Drugs (DREADD) receptor. […]

Test [3] concerns Nav1.5 channel currents (INa, ILATE) in iPS-CMs. The test can be described thus: Whole-cell patch-clamp of INa and ILATE in iPS-CMs treated with Ang II. The test is classed as cell-based, human. The settings on record: 100 nM Ang II. The procedure: Control is CNO application to cells with no M3q. Mean±SD % fluorescence change for 20 cells per group; an example photobleaching montage is inset. […] The cells were perfused with an extracellular solution containing (in mM): 130 NaCl, 5 CsCl, 1.2 MgCl2, 1.5 CaCl2), 8 Glucose, 10 HEPES (pH7.4). […] nitrendipine was added to the recording solution to block Ca^2+ flux through Cav channels. Patch pipettes with a resistance of 2.5-4 MQ are filled with a solution containing (in mM): 60 CsCl, 80 CsF, 2 MgCl2, 10 EGTA, 5 Na2ATP, 5 HEPES (pH 7.4). Currents were low pass (Bessel) filtered at 9 kHz and digitized at 50 kHz and were collected from cells with a series resistance <15 MQ; this was compensated by 70%.
The data are mean±sem for 4 cells per experiment.
Measure modulation in INa and ILATE by endogenous Gαq signaling. Like native cardiomyocytes, human iPS-CMs express AT1 receptors. Here, the effects of Ang II (Tocris) on Nav1.5 channel function in iPS-CMs is tested using four whole-cell patch-clamp recording protocols. Recording solutions and amplifier settings are described in the legend of FIG. 2: • i) I-V (and G-V): The current-voltage (I-V) relationship reports on current-density across the physiological voltage range and provides a conductance voltage (G-V) relationship that is normalized and fitted with a Boltzmann function to illustrate the voltage-dependence of activation, V½ACT. • ii) SSI: a paired-pulse protocol to determine the voltage-dependence of steady-state inactivation (SSI). The prepulse is incrementally depolarized while the test-pulse remains at a fixed amplitude. […] This parameter is studied using paired steps to −30 mV and incrementally increasing the duration between the pulses. • iv) ILATE is studied using 400 ms depolarizing pulses to −20 mV. The pulse is repeated every 10 seconds for the duration of a time-course study. Subsequently, the cell is exposed to the state-dependent, late-current blocker ranolazine at 1 μM, as previously described. The magnitude of ILATE represents the mean current 150-200 ms after peak INa and is expressed as a percentage of peak INa, following ranolazine subtraction. The time course of a change in ILATE and the change in the time constant of fast inactivation are evaluated.
In each case, Nav1.5 currents is studied before and after the administration of Ang II. […] Next, we study the concentration-dependence of these effects, spanning the pathophysiological range (20-200 nM). Utilizing a non-saturating concentration of Ang II, we introduce pharmacological tools to determine the effects on Nav1.5 function attributable to PIP2 hydrolysis. […] Subsequently, we block PIP2 hydrolysis using the PLCβ inhibitor, U73122 (5 μM, Tocris Biosciences). […] We test if downstream products of PIP2 hydrolysis alter Nav1.5 currents using the PKC inhibitor staurosporine (1 μM, 1-hour preincubation, Sigma-Aldrich) and the Ca^2+ chelator, BAPTA (10 mM in the pipette, Sigma-Aldrich).

T1 sequence (Q14524 whole entry): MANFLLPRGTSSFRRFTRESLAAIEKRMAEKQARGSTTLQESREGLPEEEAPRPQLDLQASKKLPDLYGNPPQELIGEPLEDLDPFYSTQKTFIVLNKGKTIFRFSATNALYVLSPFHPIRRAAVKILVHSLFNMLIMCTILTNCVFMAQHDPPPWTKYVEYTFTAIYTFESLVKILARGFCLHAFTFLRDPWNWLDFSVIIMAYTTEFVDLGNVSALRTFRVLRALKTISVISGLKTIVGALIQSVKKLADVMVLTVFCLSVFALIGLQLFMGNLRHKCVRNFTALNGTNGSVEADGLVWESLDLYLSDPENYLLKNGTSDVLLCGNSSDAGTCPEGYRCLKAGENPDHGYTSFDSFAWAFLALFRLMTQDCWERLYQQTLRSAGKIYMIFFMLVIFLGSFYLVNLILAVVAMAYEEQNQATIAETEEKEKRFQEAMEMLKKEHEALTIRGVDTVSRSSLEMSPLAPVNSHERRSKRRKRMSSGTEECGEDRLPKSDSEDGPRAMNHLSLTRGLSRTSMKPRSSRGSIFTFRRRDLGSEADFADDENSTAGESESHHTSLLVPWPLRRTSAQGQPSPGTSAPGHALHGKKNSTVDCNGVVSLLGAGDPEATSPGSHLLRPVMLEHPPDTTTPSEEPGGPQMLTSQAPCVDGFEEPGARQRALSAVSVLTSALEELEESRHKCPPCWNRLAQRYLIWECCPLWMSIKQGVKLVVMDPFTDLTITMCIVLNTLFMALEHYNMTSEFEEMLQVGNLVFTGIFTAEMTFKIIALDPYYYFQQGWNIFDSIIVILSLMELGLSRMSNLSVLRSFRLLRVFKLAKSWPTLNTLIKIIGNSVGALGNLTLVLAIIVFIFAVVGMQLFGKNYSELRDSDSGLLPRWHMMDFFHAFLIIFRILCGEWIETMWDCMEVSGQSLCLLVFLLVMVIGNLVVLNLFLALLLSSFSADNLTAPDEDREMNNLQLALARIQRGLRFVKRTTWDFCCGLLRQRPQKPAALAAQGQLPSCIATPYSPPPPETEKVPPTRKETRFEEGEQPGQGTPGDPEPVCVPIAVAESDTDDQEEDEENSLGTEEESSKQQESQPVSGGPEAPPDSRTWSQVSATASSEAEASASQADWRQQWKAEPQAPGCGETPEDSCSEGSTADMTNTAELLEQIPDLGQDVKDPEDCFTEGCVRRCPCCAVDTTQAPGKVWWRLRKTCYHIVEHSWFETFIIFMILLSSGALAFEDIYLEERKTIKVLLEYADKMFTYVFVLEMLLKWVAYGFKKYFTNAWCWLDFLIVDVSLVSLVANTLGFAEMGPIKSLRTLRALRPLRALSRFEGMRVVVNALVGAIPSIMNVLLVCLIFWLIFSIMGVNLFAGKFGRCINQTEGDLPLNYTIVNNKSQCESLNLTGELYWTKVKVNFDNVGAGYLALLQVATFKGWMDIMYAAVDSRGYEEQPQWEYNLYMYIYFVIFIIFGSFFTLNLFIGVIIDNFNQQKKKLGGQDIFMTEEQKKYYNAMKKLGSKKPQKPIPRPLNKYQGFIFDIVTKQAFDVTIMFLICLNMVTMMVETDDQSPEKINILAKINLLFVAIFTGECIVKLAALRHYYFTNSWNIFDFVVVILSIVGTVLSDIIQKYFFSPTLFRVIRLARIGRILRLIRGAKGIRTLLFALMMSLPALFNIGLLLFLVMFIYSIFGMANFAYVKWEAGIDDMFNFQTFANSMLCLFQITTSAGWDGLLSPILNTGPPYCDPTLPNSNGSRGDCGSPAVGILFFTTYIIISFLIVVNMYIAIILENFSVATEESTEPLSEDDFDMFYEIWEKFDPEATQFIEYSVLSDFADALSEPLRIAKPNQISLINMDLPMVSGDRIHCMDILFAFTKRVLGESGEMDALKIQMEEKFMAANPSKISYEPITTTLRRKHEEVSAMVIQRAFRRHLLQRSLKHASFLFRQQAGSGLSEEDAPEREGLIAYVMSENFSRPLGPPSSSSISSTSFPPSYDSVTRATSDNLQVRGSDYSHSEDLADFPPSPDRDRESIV

For `C[N+]1([O-])CCN(C2=Nc3cc(Cl)ccc3Nc3ccccc32)CC1` [CNO, clozapine N-oxide], in test [1] (100 nM CNO vs control), the “fold increase in ILATE” value was 16 fold. For the same compound, in test [1] (100 nM CNO, 400 ms pulse to −20 mV, control 0.22%), the ILATE was ~3.9 % of peak INa. This compound also returned a peak current-density in test [1] (100 nM CNO, at −35 mV, before −220±5) of −266±4 pA/pF. Besides, in test [1] (100 nM CNO, paired before/after), the “leftward shift in V½ACT” value is −10±5 mV. Also, the “voltage of peak INa (I-V relationship)” value in test [1] (100 nM CNO, before CNO −25 mV) is listed as −35 mV. Moreover, the V½SSI in test [1] (100 nM CNO, before −81.4±2) was −89.7±2 mV. Also, the “time to complete uncoupling of iRFP-PHPLCδ1 from the membrane” value in test [2] is given as not above 200 s.
As for `COc1ccc2c(c1)CC[C@@H]1[C@@H]2CC[C@]2(C)[C@@H](NCCCCCCN3C(=O)C=CC3=O)CC[C@@H]12` [U73122], in test [1] (100 nM CNO), the “effect on CNO-evoked increase in ILATE” value was “precluded”; the “effect on CNO-evoked leftwards shifts in V½ACT and V½SSI” value (from here on “effect on CNO-evoked leftwards shifts”) was “precluded”; the “effect on CNO (M3q activation) effects on V½ACT, V½SSI and ILATE” value (“effect on CNO (M3q activation) effects” below) is “blocked; also recorded: abolished”. In addition, in test [2] (U73122 5 μM), the “uncoupling of iRFP-PHPLCδ1 after M3q activation” value is “does not occur”.
In the case of `O=C(O)CN(CC(=O)O)c1ccccc1OCCOc1ccccc1N(CC(=O)O)CC(=O)O` [BAPTA], in test [1] (100 nM CNO), the “effect on CNO-evoked increase in ILATE” value was “not sensitive”; the “effect on CNO-evoked leftwards shifts” value is “not sensitive”; the “effect on CNO (M3q activation) effects” value is on record as “not affected; also recorded: not blocked”.
`CN[C@@H]1C[C@H]2O[C@@](C)([C@@H]1OC)n1c3ccccc3c3c4c(c5c6ccccc6n2c5c31)C(=O)NC4` [staurosporine]: in test [1] (100 nM CNO), the “effect on CNO-evoked increase in ILATE” value is “not sensitive”; the “effect on CNO-evoked leftwards shifts” value is reported as “not sensitive”; the “effect on CNO (M3q activation) effects” value was “not affected; also recorded: not blocked”.
Take “angiotensin II (DRVYIHPF; Angiotensin-2; UniProt P01019 25-32, looked up) [Ang II, agonist of the Gαq-coupled AT1 receptor (Tocris)]”: in test [3], the “leftward shift in V½ACT” value is recorded as −7 mV, the “leftward shift in V½SSI” value is listed as −7 mV, the “peak INa” value is recorded as “increased; also recorded: elevated” and the “time over which ILATE increased” value was approximately 250 s. For the same compound, the ILATE in test [3] (before 0.15±0.1) is recorded as 3.6±0.3 % of IPEAK.
